According to US5543406A, “Inhibitors of 5-α-testosterone reductase” (priority 1994, dated 1996):

What follows are molecules tested against T1, Steroid 5-α-Reductase (Homo sapiens, UniProt P31213) (assay: Steroid 5-α-reductase in vitro assay, human prostate microsomes (BPH patients)). Conditions: human prostatic microsomes; 100 nM [3H]-testosterone, 1 mM NADPH, 60 minutes at 37° C.
T1 construct: microsomes derived from prostate tissue of benign prostatic hypertrophy (BPH) patients; from tissue; host or cells: prostate tissue of BPH patients, microsomes
T1 sequence (P31213 1-254): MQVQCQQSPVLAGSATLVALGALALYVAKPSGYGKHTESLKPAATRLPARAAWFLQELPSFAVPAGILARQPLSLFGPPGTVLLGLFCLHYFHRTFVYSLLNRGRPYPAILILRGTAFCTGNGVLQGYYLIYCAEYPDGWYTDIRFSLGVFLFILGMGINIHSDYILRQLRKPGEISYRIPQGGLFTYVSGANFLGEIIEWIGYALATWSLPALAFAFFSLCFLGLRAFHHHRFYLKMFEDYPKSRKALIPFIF
Format: biochemical

SMILES	IC50
CCN(CC)C(=O)[C@H]1CC[C@H]2[C@@H]3CNC4=CC(=O)CC[C@]4(C)[C@H]3CC[C@]12C [Compound 1, 17β-N,N-Diethylcarbamoyl-6-azaandrost-4-en-3-one]	< 10 nM
CCN(CC)C(=O)[C@H]1CC[C@H]2[C@@H]3CN(C)C4=CC(=O)CC[C@]4(C)[C@H]3CC[C@]12C [Compound 2, 17β-N,N-Diethylcarbamoyl-6-methyl-6-azaandrost-4-en-3-one]	< 10 nM
C[C@]12CC[C@H]3[C@@H](CNC4=CC(=O)CC[C@@]43C)[C@@H]1CC[C@@H]2C(=O)Sc1ccccn1 [Compound 4, 17β-(2-Pyridinylthiocarbonyl)-6-azaandrost-4-en-3-one]	< 10 nM
CC(C)CC(=O)[C@H]1CC[C@H]2[C@@H]3CNC4=CC(=O)CC[C@]4(C)[C@H]3CC[C@]12C [Compound 5, 17β-(1-Oxo-3-methylbutyl)-6-azaandrost-4-en-3-one]	< 10 nM
CCC1=C2NC[C@H]3[C@@H]4CC[C@H](C(=O)N(CC)CC)[C@@]4(C)CC[C@@H]3[C@@]2(C)CCC1=O [Compound 12, 17β-N,N-Diethylcarbamoyl-6-azaandrost-4-ethyl-4-en-3-one]	100 to 1000 nM
CCN(CC)C(=O)[C@H]1CC[C@H]2[C@@H]3CNC4=C(C#N)C(=O)CC[C@]4(C)[C@H]3CC[C@]12C [Compound 13, 17β-N,N-Diethylcarbamoyl-6-azaandrost-4-cyano-4-en-3-one]	100 to 1000 nM
CCN(CC)C(=O)[C@H]1CC[C@H]2[C@@H]3CNC4=C(CN(C)C)C(=O)CC[C@]4(C)[C@H]3CC[C@]12C [Compound 14, 17β-N,N-Diethylcarbamoyl-6-azaandrost-4-dimethylaminomethylene-4-en-3-one]	100 to 1000 nM
CCN(CC)C(=O)[C@H]1CC[C@H]2[C@@H]3CN(CCCO)C4=CC(=O)CC[C@]4(C)[C@H]3CC[C@]12C [Compound 15, 17β-N,N-Diethylcarbamoyl-6-(3-hydroxypropyl)-6-azaandrost-4-en-3-one]	100 to 1000 nM
CN1C[C@H]2[C@@H]3CC[C@H](C(=O)O)[C@@]3(C)CC[C@@H]2[C@@]2(C)CCC(=O)C=C12 [Compound 25, 17β-Carboxy-6-methyl-6-azaandrost-4-en-3-one]	100 to 1000 nM
C[C@]12CC[C@H]3[C@@H](CNC4=CC(=O)C=C[C@@]43C)[C@@H]1CC[C@@H]2C(=O)NC12CC3CC(CC(C3)C1)C2 [Compound 30, 17β-N-1-Adamantylcarbamoyl-6-azaandrost-1,4-dien-3-one]	< 10 nM
CN1C[C@H]2[C@@H]3CC[C@H](C(=O)NC(C)(C)C)[C@@]3(C)CC[C@@H]2[C@]2(C)C1=CC(=O)[C@@H]1C[C@@H]12 [Compound 34, 17β-N-t-Butylcarbamoyl-6-methyl-6-azaandrost-1α,2α-cyclopropyl-4-en-3-one]	10 to 100 nM
CCN(CC)C(=O)[C@H]1CC[C@H]2[C@@H]3CN(C(C)C)C4=CC(=O)CC[C@]4(C)[C@H]3CC[C@]12C [Compound 39, 17β-N,N-Diethylcarbamoyl-6-isopropyl-6-azaandrost-4-en-3-one]	< 10 nM
CCN(CC)C(=O)[C@H]1CC[C@H]2[C@@H]3CN(CC(C)C)C4=CC(=O)CC[C@]4(C)[C@H]3CC[C@]12C [Compound 40, 17β-N,N-Diethylcarbamoyl-6-isobutyl-6-azaandrost-4-en-3-one]	100 to 1000 nM
CCN(CC)C(=O)[C@H]1CC[C@H]2[C@@H]3CN(CC4CC4)C4=CC(=O)CC[C@]4(C)[C@H]3CC[C@]12C [Compound 41, 17β-N,N-Diethylcarbamoyl-6-methylenecyclopropyl-6-azaandrost-4-en-3-one]	100 to 1000 nM
C=CCN1C[C@H]2[C@@H]3CC[C@H](C(=O)N(CC)CC)[C@@]3(C)CC[C@@H]2[C@@]2(C)CCC(=O)C=C12 [Compound 42, 17β-N,N-Diethylcarbamoyl-6-allyl-6-azaandrost-4-en-3-one]	100 to 1000 nM
CCN(CC)C(=O)[C@H]1CC[C@H]2[C@@H]3CN(CC(=O)O)C4=CC(=O)CC[C@]4(C)[C@H]3CC[C@]12C [Compound 44, 17β-N,N-Diethylcarbamoyl-6-(2-acetic acid)-6-azaandrost-4-en-3-one]	100 to 1000 nM
CCN(CC)C(=O)[C@H]1CC[C@H]2[C@@H]3CN(CCC(=O)O)C4=CC(=O)CC[C@]4(C)[C@H]3CC[C@]12C [Compound 45, 17β-N,N-Diethylcarbamoyl-6-(3-propanoic acid)-6-azaandrost-4-en-3-one]	100 to 1000 nM
CCN(CC)C(=O)[C@H]1CC[C@H]2[C@@H]3CN(CCC(=O)OC)C4=CC(=O)CC[C@]4(C)[C@H]3CC[C@]12C [Compound 46, 17β-N,N-Diethylcarbamoyl-6-(methyl-3-propanoate)-6-azaandrost-4-en-3-one]	100 to 1000 nM
CCN(CC)C(=O)[C@H]1CC[C@H]2[C@@H]3CN(CCCC(=O)O)C4=CC(=O)CC[C@]4(C)[C@H]3CC[C@]12C [Compound 47, 17β-N,N-Diethylcarbamoyl-6-(4-butanoic acid)-6-azaandrost-4-en-3-one]	100 to 1000 nM
CCN(CC)C(=O)[C@H]1CC[C@H]2[C@@H]3CN(CCCCC(=O)O)C4=CC(=O)CC[C@]4(C)[C@H]3CC[C@]12C [Compound 48, 17β-N,N-Diethylcarbamoyl-6-(5-pentanoic acid)-6-azaandrost-4-en-3-one]	100 to 1000 nM
CCN(CC)C(=O)[C@H]1CC[C@H]2[C@@H]3CN(CCCCC(=O)OC)C4=CC(=O)CC[C@]4(C)[C@H]3CC[C@]12C [Compound 49, 17β-N,N-Diethylcarbamoyl-6-(methyl-5-pentanoate)-6-azaandrost-4-en-3-one]	100 to 1000 nM
CCN(CC)C(=O)[C@H]1CC[C@H]2[C@@H]3CN(CCCCCC(=O)O)C4=CC(=O)CC[C@]4(C)[C@H]3CC[C@]12C [Compound 50, 17β-N,N-Diethylcarbamoyl-6-(6-hexanoic acid)-6-azaandrost-4-en-3-one]	100 to 1000 nM
CCOC(=O)CCCCCN1C[C@H]2[C@@H]3CC[C@H](C(=O)N(CC)CC)[C@@]3(C)CC[C@@H]2[C@@]2(C)CCC(=O)C=C12 [Compound 51, 17β-N,N-Diethylcarbamoyl-6-(ethyl-6-hexanoate)-6-azaandrost-4-en-3-one]	100 to 1000 nM
CCN(CC)C(=O)[C@H]1CC[C@H]2[C@@H]3CN(CCCN4C(=O)c5ccccc5C4=O)C4=CC(=O)CC[C@]4(C)[C@H]3CC[C@]12C [Compound 52, 17β-N,N-Diethylcarbamoyl-6-(3-phthalimidylpropyl)-6-azaandrost-4-en-3-one]	100 to 1000 nM
CCN(CC)C(=O)[C@H]1CC[C@H]2[C@@H]3CN(CCCCN4C(=O)c5ccccc5C4=O)C4=CC(=O)CC[C@]4(C)[C@H]3CC[C@]12C [Compound 53, 17β-N,N-Diethylcarbamoyl-6-(4-phthalimidylbutyl)-6-azaandrost-4-en-3-one]	100 to 1000 nM
CCN(CC)C(=O)[C@H]1CC[C@H]2[C@@H]3CN(CCOC)C4=CC(=O)CC[C@]4(C)[C@H]3CC[C@]12C [Compound 54, 17β-N,N-Diethylcarbamoyl-6-(2-methoxyethyl)-6-azaandrost-4-en-3-one]	100 to 1000 nM
CCN(CC)C(=O)[C@H]1CC[C@H]2[C@@H]3CNC4=C(F)C(=O)CC[C@]4(C)[C@H]3CC[C@]12C [Compound 70, 17β-N,N-Diethylcarbamoyl-6-azaandrost-4-fluoro-4-en-3-one]	10 to 100 nM
C[C@]12CC[C@H]3[C@@H](CNC4=CC(=O)CC[C@@]43C)[C@@H]1CC[C@@H]2C(=O)NC(c1ccccc1)(c1ccccc1)c1ccccc1 [Compound 71, 17β-N-Triphenylmethylcarbamoyl-6-azaandrost-4-en-3-one]	< 10 nM
C[C@]12CC[C@H]3[C@@H](CNC4=CC(=O)CC[C@@]43C)[C@@H]1CC[C@@H]2C(=O)Nc1cccc2ccccc12 [Compound 72, 17β-N-1-Napthylcarbamoyl-6-azaandrost-4-en-3-one]	< 10 nM

What follows are molecules tested against Steroid 5-α-Reductase (assay: Steroid 5-α-reductase in vitro assay, rat prostate microsomes). Conditions: rat prostatic microsomes; 100 nM [3H]-testosterone, 1 mM NADPH, 60 minutes at 37° C.; read-out: ID50 Rat.
Format: biochemical

SMILES	IC50
CCN(CC)C(=O)[C@H]1CC[C@H]2[C@@H]3CNC4=CC(=O)CC[C@]4(C)[C@H]3CC[C@]12C [Compound 1, 17β-N,N-Diethylcarbamoyl-6-azaandrost-4-en-3-one]	10 to 100 nM
CCN(CC)C(=O)[C@H]1CC[C@H]2[C@@H]3CN(C)C4=CC(=O)CC[C@]4(C)[C@H]3CC[C@]12C [Compound 2, 17β-N,N-Diethylcarbamoyl-6-methyl-6-azaandrost-4-en-3-one]	10 to 100 nM
CC(C)(C)NC(=O)[C@H]1CC[C@H]2[C@@H]3CNC4=CC(=O)CC[C@]4(C)[C@H]3CC[C@]12C [Compound 3, 17β-N-t-Butylcarbamoyl-6-azaandrost-4-en-3-one]	10 to 100 nM
C[C@]12CC[C@H]3[C@@H](CNC4=CC(=O)CC[C@@]43C)[C@@H]1CC[C@@H]2C(=O)Sc1ccccn1 [Compound 4, 17β-(2-Pyridinylthiocarbonyl)-6-azaandrost-4-en-3-one]	100 to 1000 nM
CC(C)CC(=O)[C@H]1CC[C@H]2[C@@H]3CNC4=CC(=O)CC[C@]4(C)[C@H]3CC[C@]12C [Compound 5, 17β-(1-Oxo-3-methylbutyl)-6-azaandrost-4-en-3-one]	10 to 100 nM
CCN(CC)C(=O)[C@H]1CC[C@H]2[C@@H]3CNC4=C(Cl)C(=O)CC[C@]4(C)[C@H]3CC[C@]12C [Compound 8, 17β-N,N-Diethylcarbamoyl-6-azaandrost-4-chloro-4-en-3-one]	10 to 100 nM
CCN(CC)C(=O)[C@H]1CC[C@H]2[C@@H]3CNC4=C(C)C(=O)CC[C@]4(C)[C@H]3CC[C@]12C [Compound 11, 17β-N,N-Diethylcarbamoyl-6-azaandrost-4-methyl-4-en-3-one]	100 to 1000 nM
CC(C)CC(=O)[C@H]1CC[C@H]2[C@@H]3CN(C)C4=CC(=O)CC[C@]4(C)[C@H]3CC[C@]12C [Compound 26, 17β-(1-Oxo-3-methylbutyl)-6-methyl-6-azaandrost-4-en-3-one]	10 to 100 nM
CC(C)CC(=O)[C@H]1CC[C@H]2[C@@H]3CNC4=C(Br)C(=O)CC[C@]4(C)[C@H]3CC[C@]12C [Compound 66, 17β-(1-Oxo-3-methylbutyl)-6-azaandrost-4-bromo-4-en-3-one]	10 to 100 nM
CCN(CC)C(=O)[C@H]1CC[C@H]2[C@@H]3CN(C)C4=C(C)C(=O)CC[C@]4(C)[C@H]3CC[C@]12C [Compound 68, 17β-N,N-Diethylcarbamoyl-6-methyl-6-azaandrost-4-methyl-4-en-3-one]	100 to 1000 nM
CC1=C2N(C)C[C@H]3[C@@H]4CC[C@H](C(=O)NC(C)(C)C)[C@@]4(C)CC[C@@H]3[C@@]2(C)CCC1=O [Compound 69, 17β-N-t-Butylcarbamoyl-6-methyl-6-azaandrost-4-methyl-4-en-3-one]	100 to 1000 nM
